Data from patent US5045566A, “Novel imidate insecticides” (ICI Americas Inc., priority 1989, dated 1991).

What was measured:
Type in all cases: in vivo
[1] = test system: Housefly [Musca domestica]; experiment: Housefly contact mortality in dishes (HF), 48 hours; conditions: μg of test compound per 25 female flies
Procedure, shortened: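 Dry-film exposure of 25 female houseflies per cage, 48 h; LC50 as μg per 25 flies.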

[2] = test system: Tobacco Budworm [Heliothis virescens (Fabricius)] larvae; experiment: Tobacco budworm larvae, contact (TBW-C), 5 days; conditions: percent in solution, second-instar larvae
Procedure, shortened: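 Cotton cotyledons dipped 2–3 s in compound in 50-50 acetone-water, dried, then infested with 5 second-instar larvae and held 5 days at high humidity. Mortality scored; LC50 from dosage-mortality curves, expressed as percent compound in solution, concentrations from 0.1% downward.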

[3] = test system: Tobacco Budworm [Heliothis virescens (Fabricius)] eggs; experiment: Tobacco budworm eggs (TBW-E); conditions: percent in solution; 2-day old eggs
Procedure, shortened: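 Paper towel patches bearing 2-day old eggs were dipped in acetone solutions of compound, then set in petri dishes over larval rearing medium at 78° F. Mortality was scored once all control eggs had hatched and larvae were feeding. LC50, from dosage-mortality curves, is given as percent compound in solution.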

[4] = test system: Cabbage Looper [Trichoplusia ni (Hubner)]; experiment: Cabbage looper leaf dip (CL), 3-5 days; conditions: percent in solution, second-instar larvae
Procedure, shortened: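 Compounds in 50-50 acetone-water were applied by dipping squash cotyledons (about 1×1.5 in) for 2-3 s; dried leaves went into petri dishes on moist filter paper with 5 second-instar larvae under high humidity. Mortality was scored after 3-5 days; LC50 from dosage-mortality curves, as percent compound in solution.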

[5] = test system: Aster Leafhopper [Macrosteles fascifrens (Stal)]; experiment: Aster leafhopper on dipped oat seedlings (LH), 48 hours; conditions: percent in solution, adults/nymphs
Procedure, shortened: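 LC50 values, given as percent of test compound in the dip solution, were derived from dosage-mortality curves over concentrations from 0.05% downward. Mortality was counted 48 hours after ten leafhopper adults/nymphs were enclosed on treated seedlings. The seedlings were oats, about 10 cm tall, briefly dipped in 50-50 acetone-water.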

[6] = test system: Black Bean Aphid [Aphis fabae (Scop.)]; experiment: Black bean aphid spray test on nasturtium (BBA), 48 hours; conditions: percent of test compound in sprayed solution
Procedure, shortened: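 LC50, given as percent test compound in the sprayed liquid, was calculated from dosage-mortality curves using concentrations from 0.05% downward. Sprays in 50:50 acetone-water went to runoff on ~5 cm nasturtiums carrying 25-50 aphids of mixed ages, one day after infestation. Deaths were counted 48 h later under greenhouse conditions.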

[7] = test system: Maize weevil [Sitophilus zeamais (Motschulsky)]; experiment: Maize weevil on dipped corn seeds (MW), 48 hours; conditions: percent in solution, adult weevils
Procedure, shortened: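 LC50, given as percent of compound in dipping solution, comes from dosage-mortality curves over concentrations descending from 0.01%. Four corn seeds soaked 2-3 s in 50:50 acetone:water solution were dried and held with 10 adult weevils, about 25° C, mortality read after 48 h.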

[8] = test system: Beet Armyworm (Spodoptera exigua); experiment: Beet armyworm leaf dip (BAW), 5 days; conditions: percent in solution; second-instar larvae; five days
Protocol: The compounds in Tables 1 and 2 above were tested for insecticidal activity using the following testing procedures. LC50 values, based on the results of these tests and calculated according to dosage-mortality curves, are expressed in Table 3.
Beet Armyworm (Spodoptera exigua):
Test compounds were diluted in a 50-50 acetone-water solution. Young leaves of sugar beets (Beta vulgaris) were immersed in the test solutions for 2-3 seconds and placed on a wire screen to dry. The dried leaves were placed in petri dishes containing a moistened filter paper and infested with five second-instar beet armyworm larvae. The dishes were placed in a high humidity chamber. Mortality of the larvae was recorded five days later. Test concentrations ranged from 0.1% downward. The LC-50 values are expressed below in Table 3 under the heading "BAW" in terms of percent of the test compound in solution.

| Structure (SMILES) | LC50 HF [1] | LC50 TBW C (contact) [2] | LC50 TBW E (eggs) [3] | LC50 CL [4] | LC50 LH [5] | LC50 BBA [6] | LC50 MW [7] | LC50 BAW [8] |
| --- | --- | --- | --- | --- | --- | --- | --- | --- |
| Clc1cccc(N=C(OCc2cccc(Oc3ccccc3)c2)C(Cl)Cl)c1 [Compound 1] | 4.8 µg | 0.06% | 0.05% | 0.005% | > 0.05% | 0.0003% | > 0.01% | 0.009% |
| CC(C)C(=Nc1ccc(Cl)cc1)OCc1cccc(Oc2ccccc2)c1 [Compound 2] | 4.5 µg | 0.0009% | 0.04% | 0.006% | 0.0003% | 0.0003% |  | 0.01% |
| CC(Cl)(Cl)C(=Nc1ccc(Cl)cc1)OCc1cccc(Oc2ccccc2)c1 [Compound 3] | 50 µg | 0.009% | > 0.1% | 0.012% | > 0.05% | 0.003% | > 0.01% | 0.015% |
| Clc1ccc(N=C(OCc2cccc(Oc3ccccc3)c2)C(Cl)Cl)c(Cl)c1 [Compound 4] | 100 µg | 0.05% | > 0.1% | 0.007% | > 0.05% | > 0.05% |  | 0.04% |
| CC(C)C(=Nc1ccc(Cl)c(Cl)c1)OCc1cccc(Oc2ccccc2)c1 [Compound 9] | 14 µg | 0.0008% | 0.02% | 0.001% | 0.0003% | 0.001% | > 0.01% | 0.0005% |
| Clc1ccc(N=C(OCc2cccc(Oc3ccccc3)c2)C(Cl)Cl)cc1 [Compound 29] | 5 µg | 0.001% | 0.01% | 0.002% | 0.003% | 0.001% | > 0.01% | 0.003% |
| ClCC(=Nc1ccc(Cl)cc1)OCc1cccc(Oc2ccccc2)c1 [Compound 31] | > 100 µg | 0.01% | > 0.1% | 0.05% | > 0.05% | 0.05% | > 0.01% | 0.08% |
| CC(C)C(=Nc1cccc(F)c1)OCc1cccc(Oc2ccccc2)c1 [Compound 47] | 10 µg | 0.002% | 0.06% | 0.002% | 0.0003% | 0.001% |  | 0.002% |
| CC(C)C(=Nc1ccc(F)cc1F)OCc1cccc(Oc2ccccc2)c1 [Compound 52] | 8 µg | 0.004% | > 0.05% | 0.0025% | 0.001% | 0.001% |  | 0.01% |
| CC(C)C(=Nc1ccc(F)c(F)c1)OCc1cccc(Oc2ccccc2)c1 [Compound 54] | 3.5 µg | 0.001% | 0.017% | 0.0003% | 0.00015% | 0.001% |  | 0.004% |
| CC(C)C(=Nc1ccc(Cl)c(C(F)(F)F)c1)OCc1cccc(Oc2ccccc2)c1 [Compound 71] | 50 µg | 0.0008% | 0.065% | 0.0006% | 0.002% | 0.001% |  | 0.0004% |
| CC(C)C(=Nc1cccc(C(F)(F)F)c1)OCc1ccc(F)c(Oc2ccccc2)c1 [Compound 80] | 4.5 µg | 0.00075% | 0.005% | 0.0003% | 0.0001% | 0.00025% |  | 0.0018% |
| O=[N+]([O-])c1ccc(N=C(OCc2cccc(Oc3ccccc3)c2)C(Cl)Cl)cc1 [Compound 173] | 18 µg | > 0.1% | > 0.1% | 0.02% |  | > 0.05% |  | > 0.1% |
| CC(C)C(=Nc1ccc(Br)c(F)c1)OCc1ccc(F)c(Oc2ccc(F)cc2)c1 [Compound 282] | 16 µg | 0.0007% | 0.02% | 0.00007% |  |  | 0.008% | 0.0025% |
| CC(C)C(=Nc1ccc2c(c1)OC(C)(C)O2)OCc1ccc(F)c(Oc2ccc(F)cc2)c1 [Compound 283] | 23 µg | 0.0009% | 0.016% | 0.00009% |  |  | > 0.01% | 0.0013% |
| CC(C)C(=Nc1ccc2c(c1)OC(F)(F)O2)OCc1ccc(F)c(Oc2ccc(F)cc2)c1 [Compound 284] | 39 µg | 0.0002% |  | 0.00005% | 0.0003% | 0.0003% | 0.0075% | 0.0025% |
| CC(C)C(=Nc1ccc(F)c(I)c1)OCc1ccc(F)c(Oc2ccc(Cl)cc2)c1 [Compound 326] | 25 µg | 0.0005% | 0.03% | 0.00015% |  | > 0.05% |  | 0.004% |
| CC(C)C(=Nc1ccc(F)c(Cl)c1F)OCc1cccc(Oc2ccccc2)c1 [Compound 332] | 7 µg | 0.00075% | 0.015% | 0.00045% |  | > 0.05% |  | 0.0012% |
| CC(C)C(=Nc1ccc(Br)cc1)OCc1ccc(F)c(Oc2ccc(F)cc2)c1 [Compound 333] | 15 µg | 0.00075% | 0.025% | 0.00024% |  | 0.001% | > 0.01% | > 0.1% |
| CC(C)C(=Nc1ccc(I)cc1)OCc1ccc(F)c(Oc2ccc(F)cc2)c1 [Compound 335] | 34 µg | 0.00025% | 0.05% | 0.00027% |  | 0.0008% | > 0.01% | > 0.1% |
| CC(C)C(=Nc1ccc(F)c(Cl)c1)OCc1cc(Oc2ccc(F)cc2)c(F)cc1F [Compound 343] | 40 µg | 0.00025% | > 0.1% | 0.00027% |  | 0.002% | > 0.01% | > 0.1% |
| CC(C)C(=Nc1ccc2c(c1)OC(F)(F)O2)OCc1cccc(Oc2ccc(Cl)cc2)c1 [Compound 450] | 72 µg | 0.0001% | 0.015% | 0.00016% |  |  | 0.01% | 0.005% |
| CC(C)C(=Nc1ccc(F)c(Cl)c1F)OCc1cccc(Oc2ccc(Cl)cc2)n1 [Compound 500] | 16 µg | 0.00075% | 0.02% | 0.00009% |  | > 0.05% |  | 0.002% |
